The source of these data is Sander's compilation of Henry's law constants (doi:10.1021/es00156a005).

A short description of this series: Henry solubility constant Hcp at 293 K (mol/(m3 Pa)). Particulars: reference: Murphy et al. (1987).
In the case of `Clc1cccc(-c2cccc(Cl)c2Cl)c1Cl` [2,2',3,3'-tetrachlorobiphenyl], the “Henry solubility constant Hcp at 293 K” value worked out at 0.061.
In the case of `Clc1ccc(Cl)c(-c2c(Cl)cc(Cl)c(Cl)c2Cl)c1` [2,2',3,4,5',6-hexachlorobiphenyl], the “Henry solubility constant Hcp at 293 K” value worked out at 0.07.
For `Clc1ccc(-c2ccc(Cl)c(Cl)c2)c(Cl)c1` [2,3',4,4'-tetrachlorobiphenyl] the value was 0.049; for `Clc1ccc(-c2c(Cl)cc(Cl)c(Cl)c2Cl)cc1Cl` [2,3,3',4,4',6-hexachlorobiphenyl], 0.23; for `Clc1ccccc1-c1c(Cl)cccc1Cl` [2,2',6-trichlorobiphenyl], 0.033.
Take `Clc1ccc(-c2c(Cl)ccc(Cl)c2Cl)c(Cl)c1` [2,2',3,4',6-pentachlorobiphenyl]: the “Henry solubility constant Hcp at 293 K” value amounted to 0.036.
For `Clc1ccc(Cl)c(-c2cccc(Cl)c2Cl)c1` [2,2',3,5'-tetrachlorobiphenyl], the “Henry solubility constant Hcp at 293 K” value is 0.052.
On to `Clc1ccc(-c2ccccc2Cl)cc1` [2,4'-dichlorobiphenyl], for which the “Henry solubility constant Hcp at 293 K” value turned out to be 0.035.
As for `Clc1cc(Cl)c(Cl)c(-c2ccc(Cl)c(Cl)c2)c1` [2,3,3',4',5-pentachlorobiphenyl], the “Henry solubility constant Hcp at 293 K” value worked out at 0.17.
As to `Clc1ccc(-c2c(Cl)ccc(Cl)c2Cl)cc1Cl` [2,3,3',4',6-pentachlorobiphenyl], the “Henry solubility constant Hcp at 293 K” value was 0.093.
The same measure for `Clc1ccccc1-c1ccc(Cl)c(Cl)c1Cl` [2,2',3,4-tetrachlorobiphenyl]: 0.049; for `Clc1cccc(-c2c(Cl)cccc2Cl)c1Cl` [2,2',3,6'-tetrachlorobiphenyl]: 0.038; for `Clc1cc(Cl)c(-c2ccc(Cl)c(Cl)c2Cl)cc1Cl` [2,2',3,4,4',5'-hexachlorobiphenyl]: 0.13.
`Clc1cc(Cl)c(-c2cccc(Cl)c2Cl)cc1Cl` [2,2',3,4',5'-pentachlorobiphenyl]: the “Henry solubility constant Hcp at 293 K” value was 0.066.
With `Clc1ccc(-c2ccccc2)c(Cl)c1` [2,4-dichlorobiphenyl], the “Henry solubility constant Hcp at 293 K” value was determined as 0.027.
Take `Clc1cc(Cl)c(-c2c(Cl)c(Cl)cc(Cl)c2Cl)cc1Cl` [2,2',3,4',5,5',6-heptachlorobiphenyl]: the “Henry solubility constant Hcp at 293 K” value turned out to be 0.12.
Consider `Clc1cccc(-c2c(Cl)ccc(Cl)c2Cl)c1Cl` [2,2',3,3',6-pentachlorobiphenyl], for which the “Henry solubility constant Hcp at 293 K” value worked out at 0.057.
As for `Clc1ccc(Cl)c(-c2c(Cl)ccc(Cl)c2Cl)c1Cl` [2,2',3,3',6,6'-hexachlorobiphenyl], the “Henry solubility constant Hcp at 293 K” value was 0.044.
`Clc1ccc(-c2c(Cl)ccc(Cl)c2Cl)cc1` [2,3,4',6-tetrachlorobiphenyl]: the “Henry solubility constant Hcp at 293 K” value came out at 0.058.
On to `Clc1ccccc1-c1cccc(Cl)c1Cl` [2,2',3-trichlorobiphenyl], for which the “Henry solubility constant Hcp at 293 K” value was 0.041.
As for `Clc1ccc(-c2cc(Cl)ccc2Cl)cc1` [2,4',5-trichlorobiphenyl], the “Henry solubility constant Hcp at 293 K” value turned out to be 0.037.
Consider `Clc1ccc(-c2cc(Cl)ccc2Cl)c(Cl)c1` [2,2',4,5'-tetrachlorobiphenyl], for which the “Henry solubility constant Hcp at 293 K” value worked out at 0.036.
For `Clc1cc(Cl)c(Cl)c(-c2cccc(Cl)c2Cl)c1` [2,2',3,3',5-pentachlorobiphenyl], the “Henry solubility constant Hcp at 293 K” value worked out at 0.06.
As to `Clc1cccc(-c2ccccc2Cl)c1` [2,3'-dichlorobiphenyl], the “Henry solubility constant Hcp at 293 K” value was 0.032.
As for `Clc1cccc(-c2c(Cl)cccc2Cl)c1` [2,3',6-trichlorobiphenyl], the “Henry solubility constant Hcp at 293 K” value worked out at 0.035.
`Clc1ccc(-c2cc(Cl)c(Cl)cc2Cl)cc1Cl` [2,3',4,4',5-pentachlorobiphenyl]: the “Henry solubility constant Hcp at 293 K” value is 0.12.
For `Clc1cc(Cl)c(Cl)c(-c2cc(Cl)c(Cl)cc2Cl)c1` [2,2',3,4',5,5'-hexachlorobiphenyl], the “Henry solubility constant Hcp at 293 K” value was determined as 0.11.
`Clc1cc(Cl)c(Cl)c(-c2ccc(Cl)c(Cl)c2Cl)c1` [2,2',3,3',4,5'-hexachlorobiphenyl]: the “Henry solubility constant Hcp at 293 K” value was found to be 0.092.
On to `Clc1ccc(Cl)c(-c2cc(Cl)ccc2Cl)c1` [2,2',5,5'-tetrachlorobiphenyl], for which the “Henry solubility constant Hcp at 293 K” value is 0.041.
Take `Clc1cc(Cl)c(-c2c(Cl)ccc(Cl)c2Cl)cc1Cl` [2,2',3,4',5',6-hexachlorobiphenyl]: the “Henry solubility constant Hcp at 293 K” value turned out to be 0.067.
Take `Clc1ccc(-c2cc(Cl)c(Cl)c(Cl)c2Cl)c(Cl)c1` [2,2',3,4,4',5-hexachlorobiphenyl]: the “Henry solubility constant Hcp at 293 K” value worked out at 0.15.
The same measure for `Clc1ccc(-c2ccc(Cl)c(Cl)c2Cl)cc1` [2,3,4,4'-tetrachlorobiphenyl]: 0.061; for `Clc1ccc(-c2ccccc2Cl)cc1Cl` [2,3',4'-trichlorobiphenyl]: 0.044; for `Clc1cc(-c2cccc(Cl)c2Cl)cc(Cl)c1Cl` [2,3,3',4',5'-pentachlorobiphenyl]: 0.16.
`Clc1ccc(-c2cc(Cl)cc(Cl)c2Cl)cc1` [2,3,4',5-tetrachlorobiphenyl]: the “Henry solubility constant Hcp at 293 K” value stood at 0.034.
The same measure for `Clc1cc(Cl)c(-c2cc(Cl)c(Cl)cc2Cl)cc1Cl` [2,2',4,4',5,5'-hexachlorobiphenyl]: 0.1; for `Clc1ccc(Cl)c(-c2cc(Cl)c(Cl)c(Cl)c2Cl)c1` [2,2',3,4,5,5'-hexachlorobiphenyl]: 0.1.
As to `Clc1cc(Cl)c(Cl)c(-c2c(Cl)ccc(Cl)c2Cl)c1` [2,2',3,3',5,6'-hexachlorobiphenyl], the “Henry solubility constant Hcp at 293 K” value worked out at 0.07.
In the case of `Clc1ccc(Cl)c(-c2ccccc2Cl)c1` [2,2',5-trichlorobiphenyl], the “Henry solubility constant Hcp at 293 K” value was 0.033.
Regarding `Clc1ccc(-c2ccccc2Cl)c(Cl)c1` [2,2',4-trichlorobiphenyl], the “Henry solubility constant Hcp at 293 K” value worked out at 0.03.
As for `Clc1ccc(Cl)c(-c2cc(Cl)c(Cl)cc2Cl)c1` [2,2',4,5,5'-pentachlorobiphenyl], the “Henry solubility constant Hcp at 293 K” value turned out to be 0.055.
On to `Clc1ccc(-c2cccc(Cl)c2Cl)c(Cl)c1` [2,2',3,4'-tetrachlorobiphenyl], for which the “Henry solubility constant Hcp at 293 K” value is 0.05.
Consider `Clc1cccc(-c2ccc(Cl)c(Cl)c2Cl)c1Cl` [2,2',3,3',4-pentachlorobiphenyl], for which the “Henry solubility constant Hcp at 293 K” value was 0.084.
Turning to `Clc1cc(Cl)c(-c2c(Cl)cc(Cl)c(Cl)c2Cl)cc1Cl` [2,2',3,4,4',5',6-heptachlorobiphenyl], the “Henry solubility constant Hcp at 293 K” value stood at 0.15.
For the compound `Clc1cc(Cl)c(-c2ccccc2Cl)cc1Cl` [2,2',4,5-tetrachlorobiphenyl], the “Henry solubility constant Hcp at 293 K” value came to 0.039.
Turning to `Clc1ccccc1-c1ccccc1Cl` [2,2'-dichlorobiphenyl], the “Henry solubility constant Hcp at 293 K” value came to 0.033.
Turning to `Clc1ccc(-c2cccc(Cl)c2Cl)cc1Cl` [2,3,3',4'-tetrachlorobiphenyl], the “Henry solubility constant Hcp at 293 K” value was found to be 0.061.
With `Clc1ccc(Cl)c(-c2ccccc2)c1Cl` [2,3,6-trichlorobiphenyl], the “Henry solubility constant Hcp at 293 K” value amounted to 0.031.
The same measure for `Clc1ccc(Cl)c(-c2c(Cl)ccc(Cl)c2Cl)c1` [2,2',3,5',6-pentachlorobiphenyl]: 0.05; for `Clc1ccc(-c2ccc(Cl)c(Cl)c2)cc1` [3,4,4'-trichlorobiphenyl]: 0.065; for `Clc1cccc(-c2ccc(Cl)cc2Cl)c1` [2,3',4-trichlorobiphenyl]: 0.024.
In the case of `Clc1cc(Cl)c(-c2c(Cl)ccc(Cl)c2Cl)c(Cl)c1Cl` [2,2',3,3',4,6,6'-heptachlorobiphenyl], the “Henry solubility constant Hcp at 293 K” value worked out at 0.11.
For `Clc1cccc(-c2cc(Cl)ccc2Cl)c1` [2,3',5-trichlorobiphenyl] the value was 0.029.
As for `Clc1cccc(-c2c(Cl)cc(Cl)c(Cl)c2Cl)c1Cl` [2,2',3,3',4,6-hexachlorobiphenyl], the “Henry solubility constant Hcp at 293 K” value came to 0.15.
`Clc1ccc(Cl)c(-c2ccc(Cl)c(Cl)c2)c1` [2,3',4',5-tetrachlorobiphenyl]: the “Henry solubility constant Hcp at 293 K” value came to 0.052.
As to `Clc1ccccc1-c1cc(Cl)c(Cl)c(Cl)c1` [2,3',4',5'-tetrachlorobiphenyl], the “Henry solubility constant Hcp at 293 K” value was found to be 0.077.
The same measure for `Clc1ccc(-c2cc(Cl)c(Cl)cc2Cl)c(Cl)c1` [2,2',4,4',5-pentachlorobiphenyl]: 0.046; for `Clc1ccc(-c2ccc(Cl)c(Cl)c2Cl)c(Cl)c1` [2,2',3,4,4'-pentachlorobiphenyl]: 0.06.
The same measure for `Clc1ccc(Cl)c(-c2cc(Cl)c(Cl)c(Cl)c2)c1` [2,3',4',5,5'-pentachlorobiphenyl]: 0.19; for `Clc1cc(-c2c(Cl)ccc(Cl)c2Cl)c(Cl)c(Cl)c1Cl` [2,2',3,3',4,5,6'-heptachlorobiphenyl]: 0.2; for `Clc1ccc(-c2c(Cl)c(Cl)cc(Cl)c2Cl)c(Cl)c1Cl` [2,2',3,3',4,5',6'-heptachlorobiphenyl]: 0.3.
